Results as given in patent publication US10435376B2, “Derivatives of 1H-imidazole-4,5-dicarboxamide and use thereof in preparation of anticoccidial drugs” (GUANGZHOU INSIGHTER BIOTECHNOLOGY CO., LTD., priority 2015, dated 2019).
Like-named read-outs stand apart in the source and are kept apart here.

Legend:
Type in all cases: in vivo
Eimeria tenella = assay: Inhibitory effects of the derivatives on Eimeria tenella of chicken (60 ppm in feed); conditions: for responders at 60 ppm, 60 µg/mL / response vs control in vivo at 60 ppm, 60 µg/mL: Eimeria tenella, 168 h; for responders at 60 ppm, 60 µg/mL: read-out: Survival rate (%); for response vs control in vivo at 60 ppm, 60 µg/mL: relative to group 1 (not infected, not treated), read-out: Relative weight gain (%); for Score (bloody stool score): 5 days after inoculation
Excerpt: (§1) One-day-old yellow-feather fast-growing broilers were raised in a coccidia-free environment, and divided into groups for trial at the age of 18 days when no coccidian oocysts were detected by microscopy in their faeceas. Weak or overweight broilers were removed, and healthy broilers were divided into 30 groups with 50 broilers in each group and weight difference between each two broilers was below 20 g. Groups 1 and 2 were respectively a control group that the broilers were neither infected nor treated, and a control group that the broilers were infected but not treated. Groups 3 to 30 were respectively administrated with different derivatives. The broilers were given ad libitum access to feed and water when the feed was added with different medicines according to Table 1 at the day the broilers were divided. 24 Hours after the trial began, 250,000 sporulated Eimeria tenella oocysts were inoculated via an oral gavage into the crop of every broiler in each group except group 1. Bloody stool score was measured 5 days after the inoculation and the trial was ended 7 days after the inoculation. Relative weight gain (%), survival rate (%) and the bloody stool score were evaluated.
(§2) Bloody stool score: 0, no bloody stool was observed; 1, bloody stool below 25%; 2, 25 to 50% of bloody stool; 3, 50 to 75% of bloody stool; and 4, bloody stool over 75%.
(§3) Relative weight gain (%): The broilers were weighed at the beginning and the end of the trial to calculate the average weight gain and relative weigh gain. Relative weight gain=(average weight gain of each group/average weight gain of group 1)×100%.
(§4) Deaths of the broilers: Necropsy was performed and the amount of dead broilers in each group was recorded to calculate the survival rate. Survival rate=(total amount of the broilers in each group−amount of deaths caused by coccidial infection)/total amount of the broilers in each group×100%.

Eimeria necatrix = assay: Inhibitory effects of the derivatives on Eimeria necatrix of chicken; conditions: for responders at 60 ppm, 60 µg/mL / response vs control in vivo at 60 ppm, 60 µg/mL: Eimeria necatrix, 168 h; for responders at 60 ppm, 60 µg/mL: read-out: Survival rate (%); for response vs control in vivo at 60 ppm, 60 µg/mL: feed or water, read-out: Relative weight gain (%); for response vs control in vivo at 60 ppm, 60 µg/mL / Score (bloody stool score): broilers, 60 ppm in feed, 100,000 E. necatrix oocysts; for Score (bloody stool score): 5 days after inoculation
Method: as §2, §3, §4
as §1, with “into 10” for “into 30”, “to 10” for “to 30”, “Table 4” for “Table 1”, “began, 100,000” for “began, 250,000”, “Eimeria necatrix” for “Eimeria tenella”, “were evaluated (according to embodiment 2).” for “were evaluated.”

Eimeria acervulina = assay: Inhibitory effects of the derivatives on Eimeria acervulina of chicken; conditions: for responders at 60 ppm, 60 µg/mL / response vs control in vivo at 60 ppm, 60 µg/mL: Eimeria acervulina, 168 h; for responders at 60 ppm, 60 µg/mL: read-out: Survival rate (%); for response vs control in vivo at 60 ppm, 60 µg/mL: feed or water, read-out: Relative weight gain (%)
Method: as §3, §4
One-day-old yellow-feather fast-growing broilers were raised in a coccidia-free environment, and divided into groups for trial at the age of 18 days when no coccidian oocysts were detected by microscopy in their faeceas. Weak or overweight broilers were removed, and healthy broilers were divided into 10 groups with 50 broilers in each group and weight difference between each two broilers was below 20 g. Groups 1 and 2 were respectively a control group that the broilers were neither infected nor treated, and a control group that the broilers were infected but not treated. Groups 3 to 10 were respectively administrated with different derivatives. The broilers were given ad libitum access to feed and water when the feed was added with different medicines according to Table 3 at the day the broilers were divided. 24 Hours after the trial began, 400,000 sporulated Eimeria acervulina oocysts were inoculated via an oral gavage into the crop of every broiler in each group except group 1. The trial was ended 7 days after the inoculation. Relative weight gain (%), survival rate (%) and feed conversion ratio were evaluated.

[1] = broilers, 60 ppm in feed, 250,000 E. tenella oocysts, 7 days after inoculation
[2] = broilers, 60 ppm in feed, 250,000 E. tenella oocysts
[3] = broilers, 60 ppm in feed, 400,000 E. acervulina oocysts, 7 days after inoculation
[4] = broilers, 60 ppm in feed, 400,000 E. acervulina oocysts

Row | SMILES | responders at 60 ppm, 60 µg/mL (Eimeria tenella; [1]) [%] | response vs control in vivo at 60 ppm, 60 µg/mL (Eimeria tenella; [2]) [%] | Score (bloody stool score) (Eimeria tenella; [2]) | other results
1 | CN1CCN(C(=O)c2nc[nH]c2C(=O)N2CCN(C)CC2)CC1 [IST15008, (1H-imidazole-4,5-diyl) bis((4-methylpiperazin-1-yl)methanone)] | 100 | 89.7 | 2 (25 to 50% of bloody stool) | responders at 60 ppm, 60 µg/mL (Eimeria necatrix): 100%; response vs control in vivo at 60 ppm, 60 µg/mL (Eimeria necatrix): 81.2%; Score (bloody stool score) (Eimeria necatrix): 3 (50 to 75% of bloody stool)
2 | O=C(Nc1ccc([N+](=O)[O-])cc1)c1nc[nH]c1C(=O)Nc1ccc([N+](=O)[O-])cc1 [IST15009, N^4,N^5-bis(4-nitrophenyl)-1H-imidazole-4,5-dicarboxamide] | – | 82.6 | 3 (50 to 75% of bloody stool) | responders at 60 ppm, 60 µg/mL (Eimeria tenella): 100%
3 | CCCCN1C(=O)c2nc[nH]c2C1=O [IST15013, 5-butylpyrrolo[3,4-d]imidazole-4,6(1H,5H)-dione] | 100 | 88.8 | 3 (50 to 75% of bloody stool) | –
4 | O=C1NC(=O)c2[nH]cnc21 [IST15015, pyrrolo[3,4-d]imidazole-4,6(1H,5H)-dione] | 100 | 72.5 | 4 (bloody stool over 75%) | –
5 | Cc1nc(=O)c2[nH]cnc2c(=O)[nH]1 [IST15016, 6-methylimidazo[4,5-e][1,3]diazepine-4,8(1H,5H)-dione] | 100 | 74.8 | 2 (25 to 50% of bloody stool) | responders at 60 ppm, 60 µg/mL (Eimeria acervulina; [3]): 100%; response vs control in vivo at 60 ppm, 60 µg/mL (Eimeria acervulina; [4]): 75.6%; Feed conversion ratio (Eimeria acervulina; [4]): 2.524
6 | NC(=O)c1ncn(Cc2ccc(Cl)cc2)c1C(N)=O [IST15037, 1-(4-chlorobenzyl)-1H-imidazole-4,5-dicarboxamide] | 100 | 99.2 | 0 | anticoccidial activity in view of survival rate, bloody stool score and relative weight gain (Eimeria tenella; 60 ppm, E. tenella): highest anticoccidial activities; anticoccidial activity in view of survival rate, relative weight gain and feed conversion ratio (Eimeria acervulina; 60 ppm, E. acervulina): highest anticoccidial activities; responders at 60 ppm, 60 µg/mL (Eimeria acervulina; [3]): 100%; response vs control in vivo at 60 ppm, 60 µg/mL (Eimeria acervulina; [4]): 98.5%; Feed conversion ratio (Eimeria acervulina; [4]): 2.148; anticoccidial activity in view of survival rate, bloody stool score and relative weight gain (Eimeria necatrix; 60 ppm, E. necatrix): highest anticoccidial activities; responders at 60 ppm, 60 µg/mL (Eimeria necatrix): 100%; response vs control in vivo at 60 ppm, 60 µg/mL (Eimeria necatrix): 98.9%; Score (bloody stool score) (Eimeria necatrix): 0
7 | NC(=O)c1ncn(Cc2cccc(Cl)c2)c1C(N)=O [IST15041, 1-(3-chlorobenzyl)-1H-imidazole-4,5-dicarboxamide] | 100 | 85.4 | 3 (50 to 75% of bloody stool) | –
8 | NC(=O)c1ncn(Cc2ccc(F)cc2)c1C(N)=O [IST15042, 1-(4-fluorobenzyl)-1H-imidazole-4,5-dicarboxamide] | 100 | 81.2 | 3 (50 to 75% of bloody stool) | –
9 | NC(=O)c1ncn(Cc2c(Cl)cccc2Cl)c1C(N)=O [IST15044, 1-(2,6-dichlorobenzyl)-1H-imidazole-4,5-dicarboxamide] | 100 | 79.8 | 3 (50 to 75% of bloody stool) | –
10 | Cc1ccc(Cn2cnc(C(N)=O)c2C(N)=O)cc1 [IST15046, 1-(4-methylbenzyl)-1H-imidazole-4,5-dicarboxamide] | 100 | 78.4 | 3 (50 to 75% of bloody stool) | –
11 | COc1ccc(Cn2cnc(C(N)=O)c2C(N)=O)cc1 [IST15053, 1-(4-methoxybenzyl)-1H-imidazole-4,5-dicarboxamide] | 100 | 82.5 | 3 (50 to 75% of bloody stool) | –
12 | NC(=O)c1ncn(Cc2ccc(Cl)c(Cl)c2)c1C(N)=O [IST15054, 1-(3,4-dichlorobenzyl)-1H-imidazole-4,5-dicarboxamide] | 100 | 71.4 | 4 (bloody stool over 75%) | –
13 | NC(=O)c1ncn(Cc2cc([N+](=O)[O-])cc([N+](=O)[O-])c2)c1C(N)=O [IST15056, 1-(3,5-dinitrobenzyl)-1H-imidazole-4,5-dicarboxamide] | – | 81.3 | 3 (50 to 75% of bloody stool) | responders at 60 ppm, 60 µg/mL (Eimeria tenella): 100%; responders at 60 ppm, 60 µg/mL (Eimeria acervulina): 100%; response vs control in vivo at 60 ppm, 60 µg/mL (Eimeria acervulina; [4]): 72.5%; Feed conversion ratio (Eimeria acervulina; [4]): 2.405
14 | CC(C)n1cnc(C(N)=O)c1C(N)=O [IST15115, 1-isopropyl-1H-imidazole-4,5-dicarboxamide] | 100 | 85.9 | 3 (50 to 75% of bloody stool) | –
15 | CCCCCn1cnc(C(N)=O)c1C(N)=O [IST15116, 1-pentyl-1H-imidazole-4,5-dicarboxamide] | 100 | 78.6 | 3 (50 to 75% of bloody stool) | –
16 | CS(=O)(=O)c1ccc(Cn2cnc(C(N)=O)c2C(N)=O)cc1 [IST15150, 1-(4-(methylsulfonyl)benzyl)-1H-imidazole-4,5-dicarboxamide] | 100 | 86.3 | 2 (25 to 50% of bloody stool) | –
17 | CC(=O)NC(=O)c1ncn(Cc2ccc(Cl)cc2)c1C(=O)NC(C)=O [IST15151, N^4,N^5-diacetyl-1-(4-chlorobenzyl)-1H-imidazole-4,5-dicarboxamide] | 100 | 83.6 | 3 (50 to 75% of bloody stool) | –
18 | CCC(=O)NC(=O)c1ncn(Cc2ccc(Cl)cc2)c1C(=O)NC(=O)CC [IST15152, 1-(4-chlorobenzyl)-N^4,N^5-dipropionyl-1H-imidazole-4,5-dicarboxamide] | 100 | 85.6 | 3 (50 to 75% of bloody stool) | –
19 | CCCCCCn1cnc(C(N)=O)c1C(N)=O [IST15162, 1-hexyl-1H-imidazole-4,5-dicarboxamide] | 100 | 81.6 | 3 (50 to 75% of bloody stool) | –
20 | CCn1cnc(C(=O)NC(C)=O)c1C(=O)NC(C)=O [IST15165, N^4,N^5-diacetyl-1-ethyl-1H-imidazole-4,5-dicarboxamide] | 100 | 89.7 | 2 (25 to 50% of bloody stool) | –
21 | NC(=O)c1ncn(Cc2ccc(Oc3ccc(Cl)cc3)cc2)c1C(N)=O [IST15167, 1-(4-(4-chlorophenoxy)benzyl)-1H-imidazole-4,5-dicarboxamide] | 100 | 82.7 | 3 (50 to 75% of bloody stool) | responders at 60 ppm, 60 µg/mL (Eimeria necatrix): 100%; response vs control in vivo at 60 ppm, 60 µg/mL (Eimeria necatrix): 75.8%; Score (bloody stool score) (Eimeria necatrix): 3 (50 to 75% of bloody stool)
